Non-standard residues stand in square brackets, D forms with d. Residues, ends and D or L forms follow the SMILES beside them. N(1S-Me-propyl)Gly = CC[C@H](C)NCC(=O)O; Nspe = C[C@H](NCC(=O)O)c1ccccc1; Nlys = NCCCCNCC(=O)O
Target: T1, Aβ fibrils (Homo sapiens, UniProt P05067)
T1 construct: aliquots of Aβ(1-40) monomer, purified via size exclusion chromatography on Superdex 75
Assay: Dot blot assay with LOC antibody binding to Aβ fibrils
Assay type: biochemical
Protocol: The results of the ThT assay were confirmed using a dot blot assay with antibodies capable of binding to Aβ fibrils, but not Aβ monomers or pre-fibrils (LOC, available from Millipore). Thus, reduction of signal in the dot blot as compared to control is indicative of the peptoid blocking fibril formation. The intensity of the dot blot signal detecting the binding of the LOC antibody to the Aβ fibrils after incubation with a control was set to 100% to indicate maximal fibril formation. This can then be compared to the intensity of the LOC antibody dot blot signal after incubation of the Aβ with each of the peptoids. A reduction in the percent of antibody binding is indicative of inhibition of aggregation of Aβ in the assay. […] To control for the signal being at the maximum intensity parallel samples were diluted in half with 40 mM Tris buffer before being blotted (1:2). After 2 hours of incubation, none of the peptoids were capable of inhibiting aggregation of Aβ at a 1:1 dilution, likely because the antibody signal is too saturated to detect any effect of the peptoids.

T1 sequence (P05067 672-711): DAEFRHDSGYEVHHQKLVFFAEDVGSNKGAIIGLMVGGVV

SMILES: CC[C@H](C)N(CC(=O)N(CC(=O)N(CC(=O)N(CC(=O)N(CC(=O)N(CC(=O)N(CC(N)=O)[C@@H](C)c1ccccc1)[C@@H](C)c1ccccc1)[C@@H](C)CC)[C@@H](C)c1ccccc1)[C@@H](C)c1ccccc1)[C@@H](C)CC)C(=O)CNCCCCN [Peptoid 2] (H-[Nlys][N(1S-Me-propyl)Gly][N(1S-Me-propyl)Gly][Nspe][Nspe][N(1S-Me-propyl)Gly][Nspe][Nspe]-NH2)
- LOC antibody dot blot signal, percent of control (control = 100%) (Time 0 hr, dilution 1:1): 73.03%
- LOC antibody dot blot signal, percent of control (control = 100%) (Time 0 hr, dilution 1:2): 56.91%
- LOC antibody dot blot signal, percent of control (control = 100%) (Time 2 hr, dilution 1:1): 108.61%
- LOC antibody dot blot signal, percent of control (control = 100%) (Time 2 hr, dilution 1:2): 89.63%
